Source: patent US20240116873A1, “QUINOLINE MERCAPTOACETATE SULFONAMIDE DERIVATIVE, INTERMEDIATE, PHARMACEUTICAL DERIVATIVE OR FORMULATION, AND PREPARATION METHOD AND USE THEREFOR” (JIANGSU CHIATAI QINGJIANG PHARMACEUTICAL CO., LTD., priority 2022, published 2024)
pIC50: −log10 of the molar value. Where two headings read alike, the source gives them in different places. One block for each compound: values may come before it.

Columns and labels:
hURAT1 = hURAT1 (Homo sapiens (Human), UniProt Q96S37); test: In vitro inhibition of 14C-uric acid absorption in HEK-293T cells stably expressing hURAT1; type: cell-based
hURAT1, sequence (Q96S37 whole entry): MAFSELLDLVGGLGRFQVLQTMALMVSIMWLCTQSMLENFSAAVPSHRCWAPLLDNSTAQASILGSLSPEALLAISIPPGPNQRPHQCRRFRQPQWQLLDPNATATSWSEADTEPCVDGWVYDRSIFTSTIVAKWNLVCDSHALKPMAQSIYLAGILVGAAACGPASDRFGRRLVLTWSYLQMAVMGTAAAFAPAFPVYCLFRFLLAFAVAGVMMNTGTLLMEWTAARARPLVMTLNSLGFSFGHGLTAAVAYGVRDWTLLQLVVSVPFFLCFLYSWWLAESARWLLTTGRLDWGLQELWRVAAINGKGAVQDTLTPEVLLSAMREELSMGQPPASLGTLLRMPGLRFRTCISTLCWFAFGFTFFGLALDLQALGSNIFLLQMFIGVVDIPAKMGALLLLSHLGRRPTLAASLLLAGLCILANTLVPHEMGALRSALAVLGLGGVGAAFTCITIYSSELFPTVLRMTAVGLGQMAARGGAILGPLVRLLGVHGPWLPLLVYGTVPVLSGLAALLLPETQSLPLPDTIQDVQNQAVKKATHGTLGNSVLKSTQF
Method: It was to test the in vitro inhibitory activity (IC50) of the compound on hURAT1.
The culture medium included: a DMEM culture medium+10% of fetal calf serum+500 μg/ml G418+1% of P/S. • (2) When the cells grew to 80% full, the culture medium was removed, PBS was added to clean the cells once, and then pancreatin-EDTA was added for digestion. The culture medium was added when the cells were subjected to wall removal, and subjected to blowing and beating to make the cells fall off. The cells were centrifuged and collected. The culture medium was added, and subjected to blowing and beating to form cell suspension. • (3) The cell density was adjusted to be 7×10^5/ml, then the cells were inoculated into a 96-well cell culture plate with white wall and transparent bottom according to the amount of 100 μL/well, and cultured for 12-24 h.
3.3 Preparation of compounds • (1) The compound was prepared into a mother solution with a concentration of 20 mM by DMSO, the mother solution was diluted to reach a concentration of 1 mM by DMSO, and then the solution was added into 96 wells. • (2) Quality control compounds were additionally arranged on the 96-well plate, so as to obtain a 100 x compound plate. • (3) The solutions in corresponding wells of another 96-well plate were diluted 50 times by the Cl-free HBSS buffer solution, so as to obtain a 2 x compound plate (plate 2). • (4) A buffer solution containing 0.1 μCi/ml 14C-uric acid at a density of 30 μL/well and a 2 x diluted compound at a density of 30 μL/well into a new 96-well plate, so as to obtain a 1 x compound plate (plate 1) for later use.
3.4 Absorption of ^14C-uric acid in cells stably expressing hURAT1 • (1) An absorption test may be performed after cells in the 96-well plate were cultured and adhered to the wall. • (2) The cells were washed once by the preheated buffer solution at a density of 200 μL/well. • (3) The cells in each well were completely absorbed, and then the corresponding compounds and 0.1 μCi/ml 14C-uric acid solution were immediately added at a density of 50 μL/well. • (4) The plate added with the compounds was incubated in an incubator at 37° C. for 5 min. • (5) 150 μL of ice-cold buffer solution was immediately added into each well to stop absorption. Each well was washed for three times with the buffer solution.

OAT4 = OAT4 (Homo sapiens (Human), UniProt Q9NSA0); test: Inhibitory effect on transporter OAT4
OAT4, sequence (Q9NSA0 whole entry): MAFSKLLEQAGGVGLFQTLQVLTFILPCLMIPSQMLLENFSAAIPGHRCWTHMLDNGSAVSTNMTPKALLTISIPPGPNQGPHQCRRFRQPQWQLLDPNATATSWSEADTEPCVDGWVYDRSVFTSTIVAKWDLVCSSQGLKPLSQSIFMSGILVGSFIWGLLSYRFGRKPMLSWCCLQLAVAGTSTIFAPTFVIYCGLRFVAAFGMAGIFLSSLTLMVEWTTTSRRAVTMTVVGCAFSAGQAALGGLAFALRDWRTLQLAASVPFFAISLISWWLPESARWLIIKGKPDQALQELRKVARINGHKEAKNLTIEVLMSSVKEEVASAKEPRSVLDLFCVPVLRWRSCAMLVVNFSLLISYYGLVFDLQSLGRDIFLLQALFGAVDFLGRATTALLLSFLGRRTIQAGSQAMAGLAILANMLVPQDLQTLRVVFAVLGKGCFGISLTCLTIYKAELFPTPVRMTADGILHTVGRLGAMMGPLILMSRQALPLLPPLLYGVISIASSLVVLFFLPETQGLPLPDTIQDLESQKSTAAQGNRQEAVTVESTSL
Method: (§1) The IC50 of compounds on URAT1, OAT1, OAT3, and OAT4 was tested, thereby providing research data for clinical application and further development of drugs.

[1] = tested on: rat model of hyperuricemia; test: Rat model of hyperuricemia induced by oteracil potassium and hypoxanthine; type: in vivo; conditions: P<0.05
Method: Oteracil potassium was combined with hypoxanthine to induce a rat model of hyperuricemia for effective dose exploration and dose-effect relationship research. Oteracil potassium feed was adopted for feeding to induce the rat model of hyperuricemia for time-effect relationship, pathological state-based functional mechanism confirmation, and PK-PD researches.
In the experiment, the rat model of hyperuricemia was prepared by intragastric administration of hypoxanthine and intraperitoneal injection of oteracil potassium. The single intragastric administration dose of the compound shown in Formula 1 was set to be 5 mg/kg, 10 mg/kg, 20 mg/kg, and 40 mg/kg. The single intragastric administration dose of Lesinurad in the positive control groups was set to be 10 mg/kg, 20 mg/kg, 40 mg/kg, and 80 mg/kg. […] Moreover, the compounds had no significant effect on the renal coefficient, further verifying the good safety of this product at the effective dose.

OAT1 = OAT1 (Homo sapiens (Human), UniProt Q4U2R8); test: Inhibitory effect on transporter OAT1
OAT1, sequence (Q4U2R8 whole entry): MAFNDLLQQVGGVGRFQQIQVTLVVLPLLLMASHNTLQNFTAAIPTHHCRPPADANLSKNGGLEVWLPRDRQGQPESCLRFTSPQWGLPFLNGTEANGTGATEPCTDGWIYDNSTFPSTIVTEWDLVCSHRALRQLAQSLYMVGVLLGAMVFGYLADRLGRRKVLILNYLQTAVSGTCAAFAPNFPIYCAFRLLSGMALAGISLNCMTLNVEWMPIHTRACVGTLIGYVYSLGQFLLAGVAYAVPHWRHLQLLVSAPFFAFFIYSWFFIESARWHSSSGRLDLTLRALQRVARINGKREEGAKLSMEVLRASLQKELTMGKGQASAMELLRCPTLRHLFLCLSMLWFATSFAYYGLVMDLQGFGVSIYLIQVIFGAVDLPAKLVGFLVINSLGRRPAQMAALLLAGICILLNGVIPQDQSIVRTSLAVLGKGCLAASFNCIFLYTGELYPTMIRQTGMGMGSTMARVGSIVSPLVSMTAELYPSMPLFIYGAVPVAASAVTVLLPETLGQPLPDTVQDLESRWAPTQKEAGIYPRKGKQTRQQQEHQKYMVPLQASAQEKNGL
Method: as §1

OAT3 = OAT3 (Homo sapiens (Human), UniProt Q8TCC7); test: Inhibitory effect on transporter OAT3
OAT3, sequence (Q8TCC7 whole entry): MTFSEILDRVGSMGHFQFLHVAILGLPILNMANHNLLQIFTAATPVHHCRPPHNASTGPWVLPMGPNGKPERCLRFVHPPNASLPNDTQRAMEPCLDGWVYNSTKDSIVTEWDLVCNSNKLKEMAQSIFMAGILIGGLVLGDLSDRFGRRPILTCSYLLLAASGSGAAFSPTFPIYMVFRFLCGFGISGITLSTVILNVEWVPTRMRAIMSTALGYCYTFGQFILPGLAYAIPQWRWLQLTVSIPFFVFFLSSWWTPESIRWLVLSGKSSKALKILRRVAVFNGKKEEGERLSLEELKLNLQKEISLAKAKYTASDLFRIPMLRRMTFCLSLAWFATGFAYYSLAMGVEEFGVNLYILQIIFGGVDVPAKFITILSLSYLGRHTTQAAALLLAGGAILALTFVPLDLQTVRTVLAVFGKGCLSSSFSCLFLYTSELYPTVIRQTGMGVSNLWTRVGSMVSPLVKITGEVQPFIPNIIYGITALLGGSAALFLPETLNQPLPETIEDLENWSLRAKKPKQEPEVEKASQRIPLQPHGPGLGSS
Method: as §1

[2] = curve-fit parameter, hURAT1 inhibition, superscript 1 = plate1, 2 = plate2

- inhibitory effect on drug transporter OAT4 (in words) (OAT4): a certain inhibitory effect
SMILES: CCCN(CCC)S(=O)(=O)c1ccc(C(=O)O)cc1 [Probenecid]

- BOTTOM (hURAT1; [2]): 0.00
- HILLSLOPE (hURAT1; [2]): 0.75
- TOP (hURAT1; [2]): 96.94
- pIC50 (hURAT1; hURAT1, HEK-293T, 14C-uric acid, 5 min at 37° C., superscript 1 = plate1, 2 = plate2): 7.26
SMILES: CC(C)(Sc1ccncc1-c1ccc(C#N)c2ccccc12)C(=O)O [Verinuard, Verinurad]

More lines, now with the values behind:

SMILES: CCc1oc2ccccc2c1C(=O)c1cc(Br)c(O)c(Br)c1 [Benzbromarone]
- BOTTOM (hURAT1): 6.1
- HILLSLOPE (hURAT1): 1.20
- TOP (hURAT1): 99.1

SMILES: O=C(O)CSc1nnc(Br)n1-c1ccc(C2CC2)c2ccccc12 [Lesinurad]
- serum uric acid level ([1]; model rats, single intragastric dose 40 mg/kg, vs model control group): significantly reduce
- renal coefficient ([1]; rats, single intragastric dose 80 mg/kg): increased significantly

SMILES: CC(C)(Sc1ccnc2ccc(C(F)(F)F)cc12)C(=O)NS(C)(=O)=O [D]
- pIC50 (OAT1): 4.90
- pIC50 (OAT3): < 4.00
